The source of these data is patent publication US6309679A, “Method of improving processes using pectinase enzymes with noble gases” (American Air Liquide, priority 1995, dated 2001).

The subject of one assay is Pectinase (EC 3.2.1.15). As to the kind of experiment: Pectinase/Pectin reaction gas run (spectrophotometric, 400 nm). Type of assay: biochemical, Aspergillus niger. As to conditions: maximum effect, percent change compared to air. The protocol: PECTINASE (EC 3.2.1.15) (P-9932)/PECTIN (P-9135) GAS RUN PROTOCOL
PURPOSE: Effect of Air, Ne, Ar, Kr, Xe, N2 and O2 on Pectinase/Pectin reaction at 10° C., 25° C. and 35° C. (one substrate concentration).
ENZYME: Pectinase (Sigma No. P-9932) from Aspergillus niger Solution in 25-45% glycerol (actual glycerol content on label)
Unit Definition: one unit will liberate 1.0 μmole of galacturonic acid from polygalacturonic acid per min at pH 4.0 at 25° C.
SUBSTRATE: Pectin (Sigma No. P-9135) from Citrus fruits
Soln A: 0.1 M Citric acid--sodium citrate, pH 4.0 at 25° C. Dissolve 7.6 g citric acid and 12.05 g sodium citrate in 1 liter of DI H2 O. Adjust pH to 4.0. pH25° C. =4.013
Soln B: 1% Pectin in DI H2 O Boil 100 ml DI H2 O. Add 1 g pectin, stir by hand. Cover, boil for 2 minutes, stir by hand, boil for an additional 1 minute. Remove from heat and let cool for 10 minutes.
Soln C: Pectinase (50 U/ml) in Soln A Dilute 43.5 ml Pectinase to 50 ml with Soln A. Store in an amber bottle and refrigerate.
R=2.0 ml Soln B+0.5 ml Soln A
Fill the cuvettes with 2.0 ml of Soln B with a 1 cc syringe.
Fill 8 serum vials with 5.0 ml of Soln C Stopper and crimp to effect a gas tight system.
(§1) Bubble 4×30 cc of the appropriate gas in T1G1 . . . 5 cuvettes. Refrigerate under 2×10 cc of the appropriate gas. Keep refrigerated at least 15 minutes before running.
Remove G1 . . . 5 serum vials from fridge. Sample Soln C with 1 cc syringes previously filled with the appropriate gas. Slide the syringes/needle through the silicone but not into the liquid layer, simultaneously push plungers into the liquid and push the plungers simultaneously, THEN IT WILL BE NECESSARY TO PULL AND PUSH PLUNGER FOUR TIMES TO EFFECT MIXING OF THE SUBSTRATE AND ENZYME IN THE CUVETTES, run timedrives.
(§2) Bubble 4×30 cc of the appropriate gas in T2G1 . . . 5 cuvettes. Refrigerate under 2×10 cc of the appropriate gas. Keep refrigerated at least 15 minutes before running.
(§3) Bubble 4×30 cc of the appropriate gas in T3G1 . . . 5 cuvettes. Refrigerate under 2×10 cc of the appropriate gas. Keep refrigerated at least 15 minutes before running.

For assay [1], the system named is Pectinesterase (EC 3.1.1.11). As to the kind of experiment: Pectinesterase/p-Nitrophenyl acetate reaction gas run (spectrophotometric, 400 nm). Type of assay: biochemical, Orange Peel. To be noted: maximum effect, percent change compared to air. On the procedure: PECTINESTERASE (P-5400)/p-NITROPHENYL ACETATE (N-8130) GAS RUN PROTOCOL
PURPOSE: Effect of Air, Ne, Ar, Kr, Xe, N2 and 02 on Pectinesterase/p-Nitrophenyl acetate reaction at 10° C., 25° C. and 35° C. (one substrate concentration).
ENZYME: Pectinesterase P-5400
Unit definition: one unit will release 1 μequivalent of acid from pectin per min at pH 7.5 at 30° C.
SUBSTRATE: p-Nitrophenyl acetate N-8130
Soln A: 0.1 M Citric acid--Na2 HPO4 buffer, pH 7.5 25° C.
Soln B: 50 mM Methanolic p-Nitrophenyl acetate (N-8130)
Soln C: p-Nitrophenyl acetate in Soln A
Soln D: Pectinesterase (100 Units/ml) in Soln A
R=2.0 ml Soln C+0.5 ml Soln A
Fill the cuvettes with 2.0 ml of Soln C with a 1 cc syringe.
Fill 8 serum vials with 5.0 ml of Soln D. Stopper and crimp to effect a gas tight system.
as §1
Remove G1 . . . 5 serum vials from fridge. Sample Soln D with 1 cc syringes previously filled with the appropriate gas. Slide the syringes/needle through the silicone but not into the liquid layer, simultaneously push plungers into the liquid and push the plungers simultaneously, run timedrives.
as §2, §3

Consider `[Ar]` [Ar, argon], for which the “Pectinase % Rate Difference” value in the assay on Pectinase (EC 3.2.1.15) (25° C.) was 6.4%; in the assay on Pectinase (EC 3.2.1.15) (35° C.), 18.3%. Moreover, the “Pectinase % Yield Difference” value in the assay with Pectinase (EC 3.2.1.15) (35° C.) is reported as 8.0%. Also, the “Pectinesterase % Rate Difference” value in assay [1] (10° C.) came out at 5.0%; in assay [1] (25° C.) it was 17.7%; in assay [1] (35° C.), 0.8%. Further, the figures for the “Pectinesterase % Yield Difference” value in assay [1] (25° C.) and in assay [1] (35° C.) were 2.1% and 0.70%, respectively.
Turning to `[Ne]` [Ne, neon], the “Pectinase % Rate Difference” value in the assay on Pectinase (EC 3.2.1.15) (25° C.) is 4.3%; in the assay with Pectinase (EC 3.2.1.15) (35° C.) it was 3.3%. Besides, the “Pectinase % Yield Difference” value in the assay on Pectinase (EC 3.2.1.15) (35° C.) is given as 3.3%. The entries for the “Pectinesterase % Rate Difference” value in assay [1] (10° C.), in assay [1] (25° C.) and in assay [1] (35° C.) were 19.4%, 0.0% and 1.6%, respectively. Further, the “Pectinesterase % Yield Difference” value came to 0.37% in assay [1] (25° C.) and 1.4% in assay [1] (35° C.).
For `[Xe]` [Xe, xenon], the “Pectinase % Rate Difference” value was determined as 0.0% with Pectinase (EC 3.2.1.15) (25° C.) and 15.0% in the assay on Pectinase (EC 3.2.1.15) (35° C.). The “Pectinase % Yield Difference” value with Pectinase (EC 3.2.1.15) (35° C.) was 7.0%. In addition, the entries for the “Pectinesterase % Rate Difference” value in assay [1] (10° C.), in assay [1] (25° C.) and in assay [1] (35° C.) were 29.0%, 2.0% and 3.3%, respectively. The figures for the “Pectinesterase % Yield Difference” value in assay [1] (25° C.) and in assay [1] (35° C.) were 0.70% and 0.0%, respectively.
Regarding `[Kr]` [Kr, krypton], the “Pectinase % Rate Difference” value in the assay with Pectinase (EC 3.2.1.15) (25° C.) is reported as 2.1%; in the assay on Pectinase (EC 3.2.1.15) (35° C.), 6.7%. The “Pectinase % Yield Difference” value in the assay with Pectinase (EC 3.2.1.15) (35° C.) stood at 1.4%. The “Pectinesterase % Rate Difference” value is 32.3% in assay [1] (10° C.), 29.4% in assay [1] (25° C.) and 0.8% in assay [1] (35° C.). The “Pectinesterase % Yield Difference” value in assay [1] (25° C.) was determined as 8.3%; in assay [1] (35° C.), 2.1%.
